Read-outs that look alike come from different tables or passages of the source. One block for each molecule: values may come before it.
Columns and labels:
[1] = tested on: A431 cells; assay: cells; type: cell-based, human; settings: Homo sapiens, read-out: IC50 A431
Protocol: (§1) Experiments were performed in RPMI (SW480 cells) or DMEM (HEK293 and A431 cells) medium (Gibco) supplemented with 2 mM glutamine, 10% fetal bovine serum, 100 IU/mL penicillin, 100 µg/mL streptomycin, and 1 µg/mL amphotericin B (all from Sigma) at 37 °C and 5% CO2. Cells were seeded into 96-well microtiter plates and compounds were added in DMSO in serial dilutions in triplicate. The final DMSO (dimethylsulfoxide) concentration was 0.1%. After 72 h, a WST-1 reagent was added and the absorption was measured at 450 nm with a plate reader after 30 min to 4 h. The percentage of viable cells was calculated based on vehicle-treated cells and was plotted in GraphPadPrism. At least three independent experiments were performed.
(§2) A431 cells were obtained from CLS. The other cell lines were available in the laboratory. WST-1 was purchased from Roche.

[2] = tested on: HEK293 cells; assay: cells; type: cell-based, human; settings: Homo sapiens, read-out: IC50 HEK293
Protocol: as §1, §2

[3] = tested on: SW480 cells; assay: cells; type: cell-based, human; settings: Homo sapiens, read-out: IC50 SW480
Protocol: as §1, §2

[4] = molecular target: glutaraldehyde-stabilized microtubules (paclitaxel binding site); assay: Microtubule binding affinity by displacement of Flutax-2 (fluorescence anisotropy); set-up: species or system calf
Protocol: The binding affinity of epothilone analogs 1, 14, and 16 and of targeted conjugate 4 for microtubules was determined as previously described by Díaz and co-workers, using partly cross-linked microtubules and determining the changes in fluorescence anisotropy upon displacement of the fluorescent taxol derivative Flutax-2 [42, 43] (Figure S3).
Purified calf-brain tubulin and chemicals were obtained as previously described. Stabilized, moderately crosslinked microtubules were prepared as reported in [42]. Binding constants of azathilones to stabilized microtubules were measured as previously described by Buey et al.. For details of the experimental procedures and Flutax-2 displacement curves cf. Section SI.3 of the Supplementary Materials.
SI.3. Disulfide cleavage asssay
Figure S2. […]
60 mg of frozen tubulin were thawed and loaded on a Sephadex G-25 column pre-equilibrated with cold 1 mM EGTA, 3.4 M glycerol, 10 mM sodium phosphate pH 6.8 buffer supplemented with 0.1 mM GTP. […] Fractions were collected and analyzed by spectrophotometry at 295 nm on a Thermo Evolution 300LC device. […] The tubulin concentration of the supernatant was determined by spectrophotometry at a 1:20 dilution of 10 mM sodium phosphate buffer containing 1%
SDS. The concentration was calculated with an extinction coefficient of 107’000 M-1cm-1 at 276 nm. […]
The concentration was measured spectrophotometrically as previously. […]

[5] = tested on: EGFR; settings: read-out: IC50 for displacement of [^125I]-EGF from the EGFR; cited from earlier work
[6] = tested on: cross-linked stabilized microtubules; set-up: method as in earlier work; settings: cited from earlier work
[7] = molecular target: EGFR (Homo sapiens) (UniProt P00533); assay: SPR; settings: cited from earlier work
[8] = molecular target: stabilized, moderately crosslinked microtubules (calf-brain tubulin) (calf (endogenous in calf brain)) (UniProt Q6B856); assay: fluorescence polarisation; displacement of the fluorescent taxol derivative Flutax-2 from glutaraldehyde-stabilized, partly cross-linked microtubules, read by change in fluorescence anisotropy; 35 °C; association constant Kb

Molecule: C/C(=C\c1csc(C)n1)[C@@H]1C[C@@H]2O[C@@H]2CCC[C@H](C)[C@H](O)[C@@H](C)C(=O)C(C)(C)[C@@H](O)CC(=O)O1 [Epo A, Epothilone A]
IC50 ([1]; A-431, 72 h): 0.00294 ± 0.0003 µM
IC50 ([2]; HEK293, 72 h): 0.00271 ± 0.00062 µM
IC50 ([3]; SW480, 72 h): 0.0145 ± 0.00109 µM

Molecule: Cc1nc2cc([C@@H]3C[C@@H]4C[C@H]4CCC[C@H](C)[C@H](O)[C@@H](C)C(=O)C(C)(C)CCC(=O)O3)ccc2n1CCO [compound 1, (1S,3S,10R,11S,12S,16R)-11-Hydroxy-3-(1-(2-hydroxyethyl)-2-methyl-1H-benzo[d]imidazol-5-yl)-8,8,10,12-tetramethyl-4-oxabicyclo[14.1.0] heptadecane-5,9-dione]
IC50 ([1]; A-431, 72 h): 0.00332 ± 0.0006 µM
IC50 ([2]; HEK293, 72 h): 0.00087 ± 0.00013 µM
IC50 ([3]; SW480, 72 h): 0.0176 ± 0.0035 µM

Molecule: CC(=O)SCCn1c(C)nc2cc([C@@H]3C[C@@H]4C[C@H]4CCC[C@H](C)[C@H](O)[C@@H](C)C(=O)C(C)(C)CCC(=O)O3)ccc21 [compound 14, S-(2-(5-((1S,3S,10R,11S,12S,16R)-11-Hydroxy-8,8,10,12-tetramethyl-5,9-dioxo-4-oxabicyclo[14.1.0]heptadecan-3-yl)-2-methyl-1H-benzo[d]imidazol-1-yl)ethyl) ethanethioate]
Kb lower compared to 1 ([4]; ratio of microtubule-binding affinity versus analog 1): > 10 fold

Molecule: Cc1nc2cc([C@@H]3C[C@@H]4C[C@H]4CCC[C@H](C)[C@H](O)[C@@H](C)C(=O)C(C)(C)CCC(=O)O3)ccc2n1CCSSCCn1c(C)nc2cc([C@@H]3C[C@@H]4C[C@H]4CCC[C@H](C)[C@H](O)[C@@H](C)C(=O)C(C)(C)CCC(=O)O3)ccc21 [compound 16, Dimer of (1S,3S,10R,11S,12S,16R)-11-hydroxy-3-(1-(2-mercaptoethyl)-2-methyl-1H-benzo[d]imidazol-5-yl)-8,8,10,12-tetramethyl-4-oxabicyclo[14.1.0]heptadecane-5,9-dione]
IC50 ([1]; A-431, 72 h incubation, mean of three experiments ± SD): 0.00837 ± 0.00081 µM
IC50 ([2]; HEK293, 72 h incubation, mean of three experiments ± SD): 0.00208 ± 0.00053 µM
IC50 ([3]; SW480, 72 h incubation, mean of three experiments ± SD): 0.00891 ± 0.00126 µM

microtubule binding (in words) [4]: no relevant microtubule binding
Molecule: CysCE11: GE11 peptide with a Cys residue added to the N-terminus; custom-made by Biosyntan (CYHWYGYTPQNVI) [reference compound]

Molecule: EGF: epidermal growth factor, natural EGFR ligand
IC50 [5]: 0.0051 µM

Molecule: Flutax-2
Flutax-2 Ka ([6]; 26 °C): 6.5 107 M-1
Flutax-2 Ka ([6]; 27 °C): 5.9 107 M-1
Flutax-2 Ka ([6]; 30 °C): 4.6 107 M-1
Flutax-2 Ka ([6]; 32 °C): 4.2 107 M-1
Flutax-2 Ka ([6]; 35 °C): 3.0 107 M-1
Flutax-2 Ka ([6]; 37 °C): 2.2 107 M-1
Flutax-2 Ka ([6]; 40 °C): 2.0 107 M-1
Flutax-2 Ka ([6]; 42 °C): 1.8 107 M-1

Molecule: GE11 peptide
Kd [7]: 459 µM

Molecule: GE11: 12-amino acid residue peptide of the sequence YHWYGYTPQNVI, reported to bind to EGFR [reference compound]
IC50 [5]: > 1000 µM

Ka [8]: 50000 M⁻¹
Molecule: CYHWYGYTPQNVI [Cys-GE11 peptide]

Ka [8]: 9.3e+06 M⁻¹
B1: epothilone-GE11 conjugate 4 (peptide)
peptide: CYHWYGYTPQNVI
modifications: side chain of the N-terminal Cys disulfide-linked to the thiol-containing epothilone analog 2; C-terminal amide (by the systematic name of 4)
